Laboratory results published in patent US8431715B2, “Thiazole compound (as PPARδ) ligand and pharmaceutical, cosmetic and health food comprised thereof” (Seoul National University Industry Foundation, priority 2007, dated 2013).

Tests used:
CV-1 cells = experiment: MTT assay, cytotoxicity; format: cell-based; settings: 24 hours, even at the concentration of 100,000 times the EC50 value
Protocol: MTT assay was performed to test cytotoxicity of the compounds of the present invention. MTT is a yellow substance soluble in water, but when it is introduced into a living cell, it turns into a purple insoluble crystal by dehydrogenase in mitochondria. Cytotoxicity can be confirmed by measuring OD550 after dissolving MTT in dimethylsulfoxide. The experiment was performed as follows.
CV-1 cells were inoculated in a 96-well plate (5000 cells/well). The cells were cultured in a 37[…] 5% CO2 incubator for 24 hours, and treated with the compounds of formula 1 and formula 2 at different concentrations. Then, the cells were cultured for 24 hours again, to which MTT reagent was added. After culturing for 15 minutes, the generated purple crystals were dissolved in dimethylsulfoxide. Optical density was measured with a microplate reader to confirm cytotoxicity.

ICR mice = experiment: Acute toxicity test; format: in vivo; settings: oral, up to 2000 mg/kg, 14 days
Protocol: (§1) Acute toxicity and reproductive toxicity tests were performed using mice to evaluate the toxicity of the compound of the present invention. The compound of formula 1 was orally administered to ICR mice at 6 weeks at the dosage of 50 mg/kg, 300 mg/kg and 2000 mg/kg, followed by observation on toxicity for 14 days. […] The result of reproductive toxicity test using C57BL/6 mice was also consistent with the above, which is no toxicity caused by the compound of formula 1 was observed. After oral-administration of the compound to the pregnant female mice, weight gain and growth speed of fetus were investigated.

C57BL/6 mice [1] = experiment: Reproductive toxicity test; format: in vivo
Protocol: as §1

C57BL/6 mice [2] = experiment: Obesity inhibitory effect, high-fat feed; format: in vivo; settings: 10 mg/Kg/day oral, 35% fat feed for 35 days; vehicle 58.9%
Protocol: An animal test using mice was performed to confirm the in vivo effect of the compound of the present invention. C57BL/6 (SLC Co.) mice at 14 weeks were used. To induce obesity, feeds containing 35% fat were given.

mice [3] = experiment: GTT (glucose tolerance test), diabetes improving effect; format: in vivo; settings: oral pre-treatment 78 days
Protocol: GTT (glucose tolerance test) was performed to confirm the diabetes improving effect of the compound of the present invention. Glucose (1.5 g/Kg) was intra-abdominally administered to the mice pre-treated orally with samples for 78 days. Blood glucose was measured every hour. Fasting blood glucose was lower in the group treated with the compound of the present invention than in the group treated with vehicle or GW501516.

ApoE−/− mouse = experiment: Arteriosclerosis inhibiting effect, Sudan IV plaque staining; format: in vivo; settings: 2 mg/kg/day oral, high fat high cholesterol feeds, 28 days
Protocol: In vivo animal test using ApoE−/− mouse, which is an animal model for arteriosclerosis, was performed to confirm the arteriosclerosis inhibiting effect of the compound of the present invention. The animals were orally administered with 2 mg/kg/day of the compound of formula 1 of the present invention while feeding with high fat, high cholesterol feeds (20% fat, 1.25% cholesterol; AIN-93G diet). 28 days later, plaque staining was performed over the whole artery using Sudan IV to investigate the arteriosclerosis inhibiting effect of the compound by comparing the results between experimental and control groups. As a result, arteriosclerosis was 30% inhibited in ApoE−/− mouse treated with the compound of formula 1 of the present invention, compared with the control.

C57BL/6 mice [4] = experiment: Muscle endurance test in adults with exercise, treadmill; format: in vivo; settings: 10 mg/kg oral, mice at 10 weeks, treadmill exercise 30 days
Protocol: Particularly, the compound of formula 1 was orally administered to C57BL/6 mice at 10 weeks at the concentration of 10 mg/kg, during which the mice were forced to exercise. The exercise was performed with treadmill for […] once a day for 30 days, precisely at the speed of 2 meter/min for the first 5 minutes, at 5 meter/min for 5 minutes, at 8 meter/min for 5 minutes and at 20 meter/min for the last 5 minutes. At the finish, muscle endurance and muscle function enhancing effect was tested by using treadmill. As a result, the time (1.5 fold) and distance (1.6 fold) of exercise were all increased in the group treated with the compound of the present invention, when compared with the control.

mice [5] = experiment: Morris water maze test, treatment in pregnancy and lactation; format: in vivo; settings: 10 mg/kg oral to pregnant mice, control 24.2 sec
Protocol: An animal test was performed to investigate the therapeutic effect of the compound of the present invention on dementia and Parkinson's disease based on the memory improving effect thereof. To confirm the effect of the compound of the present invention in the period of brain development, the compound was orally administered to pregnant mice at the concentration of 10 mg/kg in the periods of pregnancy and lactation. Morris water maze test was performed to detect any changes of the brain functions of the treatment group and the control group.

C57BL/6 mice [6] = experiment: Morris water maze test, LPS brain disease animal model; format: in vivo
Protocol: The therapeutic effect of the compound of the present invention on dementia and Parkinson's disease based on the memory improving effect thereof was investigated using brain disease animal model (C57BL/6 mice at 10 weeks). First, LPS was injected into the mouse brain to construct brain disease animal model. The mice were divided into four groups according to the administration and exercise. The exercise was performed with treadmill at the speed of 2 meter/min for the first 5 minutes, at 5 meter/min for 5 minutes, at 8 meter/min for 5 minutes and at 20 meter/min for the last 5 minutes. At the finish, Morris water maze test was performed. As a result, the therapeutic effect of the compound of formula 1 of the present invention on dementia and Parkinson's disease via memory enhancement by the compound and exercise was confirmed in the brain disease animal model.

Cc1cc(S[C@H](Cc2ccccc2)c2sc(-c3ccc(C(F)(F)F)cc3)nc2C)ccc1OCC(=O)O (racemic) [formula 1]
cytotoxicity (CV-1 cells): not to have cytotoxicity
changes on weight and feed taking (ICR mice): no significant changes
bone development and disease related matters (C57BL/6 mice [1]; mouse, in vivo, po): no changes
weight gain and growth speed of fetus (C57BL/6 mice [1]; mouse, in vivo, po): no significant difference
reproductive toxicity (C57BL/6 mice [1]; oral, pregnant female mice): no toxicity
weight increase (C57BL/6 mice [2]): 23.1%
time of rapid blood glucose decrease (mice [3]; glucose 1.5 g/Kg intra-abdominal): 20 to 40 min
fasting blood glucose (mice [3]; compared with vehicle or GW501516 group): lower
arteriosclerosis inhibition compared with the control (ApoE−/− mouse): 30%
distance of exercise compared with the control (C57BL/6 mice [4]): 1.6 fold
time of exercise compared with the control (C57BL/6 mice [4]): 1.5 fold
average time spent to find the platform (mice [5]): 6.8 s
Results of water maze test (C57BL/6 mice [6]; Exercise (O), control 29 seconds): 13 s
Results of water maze test (C57BL/6 mice [6]; Exercise (X), control 36 seconds): 25 s
